≈ marks a conversion by molar mass, not a printed value. Entries after “also recorded” stand apart in the source; their conditions may differ. Where a name gives a salt, the structure may show the parent alone.
Tests used:
Format in all cases: physicochemical
[1] = Chemical stability studies of Compound 1 meglumine salt at high temperatures; details: solution and solid states
[2] = Slurry competition among Freeform Type A/C/M; details: slurry competition in EtOAc and ACN, RT and 50° C.
Method: The detailed procedures are as following:
1. […] Add 1 mL corresponding solvent.
2. Magnetically stirred at RT or 50° C. for 4 hours. Filter through 0.45 μm PTFE filter to obtain clear solution.
4. Magnetically stirred at RT or 50° C. for 4 days. Tested XRPD of the wet cake.

[3] = Hygroscopicity by DVS at 25° C.
Method: DVS was measured via a SMS (Surface Measurement Systems) DVS Intrinsic. The relative humidity at 25° C. were calibrated against deliquescence point of LiCl, Mg(NO3)2 and KCl.

[4] = Solid state stability at 25° C./60% RH and 40° C./75% RH for 1 week
Method: Each sample was added into a glass vial, sealed by parafilm with several holes, and kept under tested conditions. After one week, samples were taken for XRPD and HPLC purity test.

[5] = Kinetic solubility in water and bio-relevant media (SGF, FaSSIF, FeSSIF) at 37° C.; details: for S: Solubility: calculated by freeform; for FC: Form change: residual solids by XRPD
Method: Add 4 mL of medium (H2O, SGF, FaSSIF and FeSSIF). • Rolled at 37° C. (˜25 rpm). Sampling at 1, 2, 4 and 24 hrs. • At each time-point, sampled 0.8 mL of solution or suspension into a centrifuge tube prior to centrifugation (12000 rpm, 37° C., 5 min) and filtration through 0.45 μm PTFE membrane. • Tested pH and concentration for the filtrate. Analyze residual solids by XRPD.
0.1 g of NaCl and 0.05 g of Triton X-100 were weighed into a 50-mL volumetric flask. Purified water was added to dissolve the solid. 67.5 μL HCl (38%, 12M) was added after the solid was dissolved completely. pH was then adjusted to 1.8 using HCl (1 M) or NaOH (1 M). Purified water was added to the volume.
(§1) 0.17 g of anhydrous NaH2PO4, 0.021 g of NaOH and 0.31 g of NaCl were weighed into a 50-mL volumetric flask. ˜48 mL purified water was added to dissolve the solid. pH was adjusted to 6.5 using 1M HCl or 1M NaOH. Purified water was then added to the volume. 0.11 g of SIF powder was added into the volumetric flask.
as §1, with “0.41 mL” for “0.17 g”, “acetic acid, 0.20” for “anhydrous NaH2PO4, 0.021”, “0.59” for “0.31”, “5.0” for “6.5”, “0.56” for “0.11”

[6] = pH solubility in pH 1.0-8.0 buffers at RT; details: thermodynamic from solid; for solubility at 24 h: LOQ = 0.0001 mg/mL; for solubility: pH buffers, 2 and 24 hours
Method: The procedures were listed below:
1. […] Add 2 ml, of the corresponding medium.
2. Mixed well and stirred at RT (1000 rpm). Check the pH and adjust it back to the target pH after dosing.
3. Sampled after 2 hours and 24 hours. The supernatant was isolated by centrifugation (12000 rpm, 5 min) and filtration (0.22 μm, PTFE) for pH and HPLC test.

SMILES: N#Cc1ccc(COc2cccc(C3CCN(Cc4nc5ccc(C(=O)O)cc5n4Cc4cncs4)CC3)n2)c(F)c1 [Compound 1 meglumine salt]
- chemical stability [1]: generally stable

SMILES: N#Cc1ccc(COc2cccc(C3CCN(Cc4nc5ccc(C(=O)O)cc5n4Cc4cncs4)CC3)n2)c(F)c1 [Freeform Type C]
- thermodynamic stability relationship among freeform anhydrates [2]: thermodynamically more stable anhydrate; also recorded: thermodynamically more stable form
- water uptake (DVS) ([3]; 25° C./80% RH): 0.12%
- hygroscopicity ([3]; DVS, 25° C.): non-hygroscopic
- Water uptake at 25° C./80% RH ([3]; DVS, 25° C./80% RH): 0.12 wt %
- For change after DVS ([3]; XRPD after DVS test): No
- form change after DVS test (XRPD) ([3]; after DVS test): no form change
- Form change ([4]; 25° C./60% RH/Open/1 week): No
- Purity ([4]; 25° C./60% RH/Open/1 week): 96.58 Area %
- solid-state stability: form change and purity decrease ([4]; 25° C./60% RH/open and 40° C./75% RH/open, 1 week): no form change or significant purity decrease
- Form change ([4]; 40° C./75% RH/Open/1 week): No
- Purity ([4]; 40° C./75% RH/Open/1 week): 96.69 Area %
- Purity ([4]; Initial): 96.59 Area %
- S: Solubility ([5]; FaSSIF, 37° C., 1 hr): 2 µg/mL
- FC: Form change ([5]; FaSSIF, 37° C., 1 hr): No
- S: Solubility ([5]; FaSSIF, 37° C., 2 hrs): 7 µg/mL
- FC: Form change ([5]; FaSSIF, 37° C., 2 hrs): No
- S: Solubility ([5]; FaSSIF, 37° C., 4 hrs): 5 µg/mL
- FC: Form change ([5]; FaSSIF, 37° C., 4 hrs): No
- S: Solubility ([5]; FaSSIF, 37° C., 24 hrs): 3 µg/mL
- FC: Form change ([5]; FaSSIF, 37° C., 24 hrs): No
- FC: Form change ([5]; FeSSIF, 37° C., 1 hr): No
- FC: Form change ([5]; FeSSIF, 37° C., 2 hrs): No
- FC: Form change ([5]; FeSSIF, 37° C., 4 hrs): No
- S: Solubility ([5]; FeSSIF, 37° C., 24 hrs): 8 µg/mL
- FC: Form change ([5]; FeSSIF, 37° C., 24 hrs): No
- S: Solubility ([5]; H2O, 37° C., 1 hr): 20 µg/mL
- FC: Form change ([5]; H2O, 37° C., 1 hr): No
- S: Solubility ([5]; H2O, 37° C., 2 hrs): 27 µg/mL
- FC: Form change ([5]; H2O, 37° C., 2 hrs): No
- S: Solubility ([5]; H2O, 37° C., 4 hrs): 20 µg/mL
- FC: Form change ([5]; H2O, 37° C., 4 hrs): No
- S: Solubility ([5]; H2O, 37° C., 24 hrs): 8 µg/mL
- FC: Form change ([5]; H2O, 37° C., 24 hrs): No
- S: Solubility ([5]; SGF, 37° C., 1 hr): 83 µg/mL
- FC: Form change ([5]; SGF, 37° C., 1 hr): No
- S: Solubility ([5]; SGF, 37° C., 2 hrs): 72 µg/mL
- FC: Form change ([5]; SGF, 37° C., 2 hrs): No
- S: Solubility ([5]; SGF, 37° C., 4 hrs): 75 µg/mL
- FC: Form change ([5]; SGF, 37° C., 4 hrs): No
- S: Solubility ([5]; SGF, 37° C., 24 hrs): 78 µg/mL
- FC: Form change ([5]; SGF, 37° C., 24 hrs): No
- form change of residual solids (XRPD) after solubility test ([5]; all the media (H2O, SGF, FaSSIF, FeSSIF), after 24 hrs): No form change
- solubility compared with the other selected salts ([5]; all the media, 37° C.): lowest solubility
- solubility at 24 h ([6]; pH 1.0 buffer, pH 1, aqueous buffer): 130 µg/mL (≈ 223 µM)
- solubility at 24 h ([6]; pH 2.0 buffer, pH 2, aqueous buffer): 17 µg/mL (≈ 29.2 µM)
- solubility ([6]; pH 1, aqueous buffer, pH 1.0 buffer): ≥ 130 µg/mL
- solubility ([6]; pH 2, aqueous buffer, pH 2.0˜8.0 buffers): ≤ 34 µg/mL
